One block for each molecule: values may come before it.
Assays:
[1] = Urinary excretions of AB-PC after administration of AB-PC rectal suppository (human); type: in vivo; details: AB-PC 125 mg (potency); for Urinary excretions of AB-PC (%) (0-6 hr.): added compound 10%, Witepsol H-15, % of dose; for Urinary excretions (%) 0-2 (hr.) / Urinary excretions (%) 2-4 (hr.) / Urinary excretions (%) 4-6 (hr.) / Urinary excretions (%) Total (0-6 hr.): Compound (I) 10%, Witepsol H-15, Table 3
Protocol: The thus-obtained suppositories were administered to healthy adult male humans from the anus, and the urinary excretions of AB-PC were determined.

[2] = Urinary excretions of β-lactam antibiotics after rectal suppository (rabbit); type: in vivo; details: Compound (I) 5%, Witepsol H-15
Protocol: The absorption into the circulation through the rectum of the rectal suppositories thus prepared was determined by measuring urinary excretion of the pharmacologically-active substance.
Thus, Sarcina lutea and Bacillus subtilis were used as assay organisms for penicillins and cephalosporins, respectively, and the assays were performed by the paper disk method (cultivation at 37° C. for from 15 to 20 hours).

Structure (SMILES): O=C(O)CCCCCCCCCCCCC(=O)O [Compound 7-Na, 1,12-Dodecamethylene dicarboxylic acid]
- Urinary excretions (%) 0-2 hr. ([2]; 6059-S 125 mg (potency)): 42.2%
- Urinary excretions (%) 2-4 hr. ([2]; 6059-S 125 mg (potency)): 8.8%
- Urinary excretions (%) 4-6 hr. ([2]; 6059-S 125 mg (potency)): 1.0%
- Urinary excretions (%) Total (0-6 hr.) ([2]; 6059-S 125 mg (potency)): 52.0%
- Urinary excretions of AB-PC (%) (0-6 hr.) [1]: 22.6%

Structure (SMILES): O=C(O)COc1cccc2ccccc12 [Compound 8-Na, α-Napthoxacetic acid]
- Urinary excretions of AB-PC (%) (0-6 hr.) [1]: 15.1%

Structure (SMILES): CCCCc1ccc(C(=O)O)cc1 [Compound 4-Na, p-Butylbenzoic acid]
- Urinary excretions (%) 0-2 hr. ([2]; Cefsulodin 125 mg (potency)): 30.5%
- Urinary excretions (%) 2-4 hr. ([2]; Cefsulodin 125 mg (potency)): 15.0%
- Urinary excretions (%) 4-6 hr. ([2]; Cefsulodin 125 mg (potency)): 1.1%
- Urinary excretions (%) Total (0-6 hr.) ([2]; Cefsulodin 125 mg (potency)): 45.6%
- Urinary excretions of AB-PC (%) (0-6 hr.) [1]: 28.6%

Structure (SMILES): O=C(O)Cc1ccccc1 [Phenylacetic acid Na, Phenylacetic acid, reference compound]
- Urinary excretions of AB-PC (%) (0-6 hr.) [1]: 5.8%

Structure (SMILES): c1ccc2nc3ccccc3cc2c1 [Acridine, reference compound]
- Urinary excretions of AB-PC (%) (0-6 hr.) [1]: 2.1%

Structure (SMILES): CCCCCCCCNC(=O)c1ccccc1C(=O)O [Compound 14-Na, 2-Carboxy-N--(n-octyl)benzamide]
- Urinary excretions (%) 0-2 hr. ([2]; FK-749 125 mg (potency)): 41.2%
- Urinary excretions (%) 2-4 hr. ([2]; FK-749 125 mg (potency)): 19.0%
- Urinary excretions (%) 4-6 hr. ([2]; FK-749 125 mg (potency)): 1.8%
- Urinary excretions (%) Total (0-6 hr.) ([2]; FK-749 125 mg (potency)): 62.0%

Structure (SMILES): CCCCCCCCCCCC(=O)N(C)CC(=O)O [Compound 10-Na, N--Lauroylsarcosine]
- Urinary excretions (%) 0-2 hr. ([2]; Sulbenicillin 125 mg (potency)): 33.5%
- Urinary excretions (%) 2-4 hr. ([2]; Sulbenicillin 125 mg (potency)): 10.0%
- Urinary excretions (%) 4-6 hr. ([2]; Sulbenicillin 125 mg (potency)): 1.0%
- Urinary excretions (%) Total (0-6 hr.) ([2]; Sulbenicillin 125 mg (potency)): 43.5%

Structure (SMILES): CCCCCCCCCCNC(=O)CCC(=O)O [Compound 12-Na, N--(n-Decyl)succinamic acid]
- Urinary excretions (%) 0-2 hr. ([2]; FK-749 125 mg (potency)): 40.1%
- Urinary excretions (%) 2-4 hr. ([2]; FK-749 125 mg (potency)): 18.0%
- Urinary excretions (%) 4-6 hr. ([2]; FK-749 125 mg (potency)): 2.0%
- Urinary excretions (%) Total (0-6 hr.) ([2]; FK-749 125 mg (potency)): 60.1%

Structure (SMILES): O=C(O)c1ccccc1 [Benzoic acid Na, Benzoic acid, reference compound]
- Urinary excretions of AB-PC (%) (0-6 hr.) [1]: 5.6%

Structure (SMILES): CCCCCCCCCCNC(=O)/C=C\C(=O)O [Compound 13-Na, N--(n-Decyl)maleamic acid]
- Urinary excretions (%) 0-2 hr. ([2]; FK-749 125 mg (potency)): 39.1%
- Urinary excretions (%) 2-4 hr. ([2]; FK-749 125 mg (potency)): 18.0%
- Urinary excretions (%) 4-6 hr. ([2]; FK-749 125 mg (potency)): 2.1%
- Urinary excretions (%) Total (0-6 hr.) ([2]; FK-749 125 mg (potency)): 59.2%

Structure (SMILES): CCCCOc1ccc(C(=O)N[C@@H](Cc2ccccc2)C(=O)O)cc1 [Compound 20-Na, N--(4-Butoxybenzoyl)phenylalanine]
- Urinary excretions (%) 0-2 hr. ([2]; 6059-S 125 mg (potency)): 46.0%
- Urinary excretions (%) 2-4 hr. ([2]; 6059-S 125 mg (potency)): 15.2%
- Urinary excretions (%) 4-6 hr. ([2]; 6059-S 125 mg (potency)): 4.1%
- Urinary excretions (%) Total (0-6 hr.) ([2]; 6059-S 125 mg (potency)): 65.3%

Structure (SMILES): CCCCCCCCCC(=O)NCCC(=O)O [Compound 16-Na, N--(n-Caprinoyl)-β-alanine]
- Urinary excretions (%) 0-2 hr. ([2]; Cefmetazole 125 mg (potency)): 43.1%
- Urinary excretions (%) 2-4 hr. ([2]; Cefmetazole 125 mg (potency)): 19.9%
- Urinary excretions (%) 4-6 hr. ([2]; Cefmetazole 125 mg (potency)): 2.9%
- Urinary excretions (%) Total (0-6 hr.) ([2]; Cefmetazole 125 mg (potency)): 69.1%

Structure (SMILES): c1ccc2occc2c1 [Benzofurane, reference compound]
- Urinary excretions of AB-PC (%) (0-6 hr.) [1]: 1.9%

Structure (SMILES): CCCCCCCC(=O)Nc1ccc(C(=O)O)cc1 [Compound 17-Na, N--(n-Caprylyl)-4-aminobenzoic acid]
- Urinary excretions (%) 0-2 hr. ([2]; Cefmetazole 125 mg (potency)): 45.0%
- Urinary excretions (%) 2-4 hr. ([2]; Cefmetazole 125 mg (potency)): 21.1%
- Urinary excretions (%) 4-6 hr. ([2]; Cefmetazole 125 mg (potency)): 3.0%
- Urinary excretions (%) Total (0-6 hr.) ([2]; Cefmetazole 125 mg (potency)): 64.6%

Structure (SMILES): Nc1ccc(C(=O)O)cc1 [P--Aminobenzoic acid Na, P--Aminobenzoic acid, reference compound]
- Urinary excretions of AB-PC (%) (0-6 hr.) [1]: 4.9%

Structure (SMILES): CCCCCCCC(=O)N(C)c1ccc(C(=O)O)cc1 [Compound 18-Na, N--(n-Caprylyl)-4-methylaminobenzoic acid]
- Urinary excretions (%) 0-2 hr. ([2]; 6059-S 125 mg (potency)): 42.2%
- Urinary excretions (%) 2-4 hr. ([2]; 6059-S 125 mg (potency)): 18.8%
- Urinary excretions (%) 4-6 hr. ([2]; 6059-S 125 mg (potency)): 3.6%
- Urinary excretions (%) Total (0-6 hr.) ([2]; 6059-S 125 mg (potency)): 64.6%

Structure (SMILES): CCCCN(CCCC)C(=O)CCC(=O)O [Compound 15-Na, N,N--Di-(n-butyl)succinamic acid]
- Urinary excretions (%) 0-2 hr. ([2]; Cefmetazole 125 mg (potency)): 44.0%
- Urinary excretions (%) 2-4 hr. ([2]; Cefmetazole 125 mg (potency)): 20.0%
- Urinary excretions (%) 4-6 hr. ([2]; Cefmetazole 125 mg (potency)): 1.0%
- Urinary excretions (%) Total (0-6 hr.) ([2]; Cefmetazole 125 mg (potency)): 65.9%

Structure (SMILES): CC(=O)O [Acetic acid Na, Acetic acid, reference compound]
- Urinary excretions of AB-PC (%) (0-6 hr.) [1]: 3.6%

Structure (SMILES): CC1CCC(C(C)C)C(OCC(=O)O)C1 [Compound 11-Na, L-Menthoxyacetic acid]
- Urinary excretions of AB-PC (%) (0-6 hr.) [1]: 20.0%

The remaining lines, values ahead:

- Urinary excretions of AB-PC (%) (0-6 hr.) [1]: 2.9%
Structure (SMILES): CCCCCCCC(=O)OCC [Ethyl caprylate, reference compound]

- Urinary excretions of AB-PC (%) (0-6 hr.) [1]: 3.0%
Structure (SMILES): CCCCCCCCCC(=O)OCC [Ethyl caprate, reference compound]

- Urinary excretions (%) 0-2 hr. ([2]; Cefotaxime 125 mg (potency)): 31.5%
- Urinary excretions (%) 2-4 hr. ([2]; Cefotaxime 125 mg (potency)): 10.0%
- Urinary excretions (%) 4-6 hr. ([2]; Cefotaxime 125 mg (potency)): 0.8%
- Urinary excretions (%) Total (0-6 hr.) ([2]; Cefotaxime 125 mg (potency)): 42.3%
- Urinary excretions (%) 0-2 hr. ([2]; FK-749 125 mg (potency)): 45.0%
- Urinary excretions (%) 2-4 hr. ([2]; FK-749 125 mg (potency)): 5.6%
- Urinary excretions (%) 4-6 hr. ([2]; FK-749 125 mg (potency)): 2.5%
- Urinary excretions (%) Total (0-6 hr.) ([2]; FK-749 125 mg (potency)): 53.1%
- Urinary excretions (%) 0-2 (hr.) [1]: 18.0%
- Urinary excretions (%) 2-4 (hr.) [1]: 5.1%
- Urinary excretions (%) 4-6 (hr.) [1]: 1.0%
- Urinary excretions (%) Total (0-6 hr.) [1]: 23.1%
Structure (SMILES): CCCCCCCCCC(=O)N[C@H](C(=O)O)C(C)C [Compound 24-Na, N--Caprinoyl-L-valine]

- Urinary excretions (%) 0-2 hr. ([2]; Cefotiam 125 mg (potency)): 35.2%
- Urinary excretions (%) 2-4 hr. ([2]; Cefotiam 125 mg (potency)): 6.2%
- Urinary excretions (%) 4-6 hr. ([2]; Cefotiam 125 mg (potency)): 0.5%
- Urinary excretions (%) Total (0-6 hr.) ([2]; Cefotiam 125 mg (potency)): 41.9%
- Urinary excretions (%) 0-2 (hr.) [1]: 22.0%
- Urinary excretions (%) 2-4 (hr.) [1]: 4.1%
- Urinary excretions (%) 4-6 (hr.) [1]: 0.7%
- Urinary excretions (%) Total (0-6 hr.) [1]: 26.8%
Structure (SMILES): CCCCCCCCCCCCCCCC(=O)N[C@@H](CC(=O)O)C(=O)O [Compound 27-Na, N--Palmitoyl-L-aspartic acid]

- Urinary excretions of AB-PC (%) (0-6 hr.) [1]: 2.5%
Structure (SMILES): CC(=O)NCC(=O)[O-].[Na+] [N--Acetylglycine Na, N--Acetylglycine, reference compound]

- Urinary excretions (%) 0-2 hr. ([2]; 6059-S 125 mg (potency)): 38.0%
- Urinary excretions (%) 2-4 hr. ([2]; 6059-S 125 mg (potency)): 20.0%
- Urinary excretions (%) 4-6 hr. ([2]; 6059-S 125 mg (potency)): 3.1%
- Urinary excretions (%) Total (0-6 hr.) ([2]; 6059-S 125 mg (potency)): 61.1%
Structure (SMILES): O=C(N[C@@H](Cc1ccccc1)C(=O)O)c1ccccc1O [Compound 19-Na, N--(2-Hydroxybenzoyl)phenylalanine]

- Urinary excretions (%) 0-2 hr. ([2]; Cefazolin 125 mg (potency)): 40.5%
- Urinary excretions (%) 2-4 hr. ([2]; Cefazolin 125 mg (potency)): 16.0%
- Urinary excretions (%) 4-6 hr. ([2]; Cefazolin 125 mg (potency)): 2.0%
- Urinary excretions (%) Total (0-6 hr.) ([2]; Cefazolin 125 mg (potency)): 58.5%
- Urinary excretions (%) 0-2 hr. ([2]; Cephalothin 125 mg (potency)): 19.5%
- Urinary excretions (%) 2-4 hr. ([2]; Cephalothin 125 mg (potency)): 2.5%
- Urinary excretions (%) 4-6 hr. ([2]; Cephalothin 125 mg (potency)): 0.2%
- Urinary excretions (%) Total (0-6 hr.) ([2]; Cephalothin 125 mg (potency)): 22.2%
Structure (SMILES): CCCCCC(=O)N[C@@H](Cc1c[nH]c2ccccc12)C(=O)O [Compound 22-Na, N--Caproyl-L-tryptophan]

- Urinary excretions (%) 0-2 hr. ([2]; Cefmetazole 125 mg (potency)): 45.0%
- Urinary excretions (%) 2-4 hr. ([2]; Cefmetazole 125 mg (potency)): 10.0%
- Urinary excretions (%) 4-6 hr. ([2]; Cefmetazole 125 mg (potency)): 2.0%
- Urinary excretions (%) Total (0-6 hr.) ([2]; Cefmetazole 125 mg (potency)): 57.0%
Structure (SMILES): CCCCCCCCCCCC(=O)N[C@H](C(=O)O)C(C)C [Compound 25-Na, N--Lauroyl-L-valine]

- Urinary excretions of AB-PC (%) (0-6 hr.) [1]: 6.0%
Structure (SMILES): O=C(O)CCCCCC(=O)O [Pimelic acid Na, Pimelic acid, reference compound]

- Urinary excretions of AB-PC (%) (0-6 hr.) [1]: 9.6%
Structure (SMILES): O=C(O)c1ccccc1O [Salicylic acid Na, Salicylic acid, reference compound]

- Urinary excretions (%) 0-2 (hr.) [1]: 16.8%
- Urinary excretions (%) 2-4 (hr.) [1]: 2.0%
- Urinary excretions (%) 4-6 (hr.) [1]: 1.1%
- Urinary excretions (%) Total (0-6 hr.) [1]: 19.9%
Structure (SMILES): CCCCCC(=O)N[C@@H](Cc1ccccc1)C(=O)O [Compound 21-Na, N--Caproyl-L-phenylalanine]

Reference: patent US4442090A, “Absorption-promoting compounds, compositions thereof with pharmaceuticals and/or bases for rectal administration and method of use” (Kyoto Yakuhin Kogyo Kabushiki Kaisha, priority 1980, dated 1984)
